Data: ChEMBL document CHEMBL5365470, “Design, synthesis, and biological evaluation of THIQ as antidepressive agents” (Bioorg Med Chem Lett, 2023)

Assays:
[1] = Cytoprotective activity against corticosterone-induced […] PC12 cell damage assessed as cell viability at 50 uM (reference value: 51.13 to 51.51 %); assay type: functional; conditions: Rattus norvegicus, PC-12, read-out: Activity
[2] = Toxicity in […] PC12 cells at 50 uM; assay type: cell-based, Rattus norvegicus; conditions: pc12, 50 µM
[3] = Toxicity in SPF ICR mouse assessed as body weight at 7 mg/kg, po via gavage administered daily for 7 days measured on day 7 (reference value: 29.54 +/- 1.87 g); assay type: organism-based; conditions: in vivo, 168 h, time 7 day
[4] = Toxicity in SPF ICR mouse assessed as body weight at 7 mg/kg, po administered via gavage measured on day 1 (reference value: 22.24 +/- 0.9 g); assay type: organism-based; conditions: in vivo, 24 h, time 1 day
[5] = Cytoprotective activity against corticosterone-induced […] PC12 cell damage assessed as cell viability at 5 uM (reference value: 51.13 to 51.51 %); assay type: functional; conditions: PC-12, read-out: Activity
PC12 = assay: Cytoprotective activity against corticosterone-induced […] PC12 cell damage assessed as increase in cell survival; assay type: functional, cell-based; conditions: dose 5-50 µM
[6] = Cytoprotective activity against corticosterone-induced […] PC12 cell damage assessed as cell viability at 10 uM (reference value: 51.13 to 51.51 %); assay type: functional; conditions: PC-12, read-out: Activity
[7] = Toxicity in SPF ICR mouse assessed as body weight growth at 7 mg/kg, po via gavage administered daily for 7 days (reference value: 32.62 +/- 6.17 %); assay type: organism-based; conditions: in vivo, 168 h, time 7 day
Mus musculus [8] = assay: Antidepressant activity in SPF ICR mouse assessed as decrease in immobility duration at 7 mg/kg, po via gavage administered daily for 7 days measured post-last dose by forced swimming test relative to control; assay type: functional; parameters: scale not given: the % may be the effect or the level left; conditions: time 7 day
Mus musculus [9] = assay: Antidepressant activity in SPF ICR mouse assessed as decrease in immobility duration at 7 mg/kg, po via gavage administered daily for 7 days measured post-last dose by tail suspension test relative to control; assay type: functional; parameters: scale not given: the % may be the effect or the level left; conditions: time 7 day
[10] = Cytoprotective activity against corticosterone-induced […] PC12 cells assessed as cell survival at 10 uM preincubated for 1 hr followed by corticosterone stimulation and measured after 24 hrs (reference value: 51.13 to 51.51 %); assay type: functional; conditions: PC-12, time 25 hrs, read-out: Activity
[11] = Cytoprotective activity against corticosterone-induced […] PC12 cells assessed as cell survival at 5 uM preincubated for 1 hr followed by corticosterone stimulation and measured after 24 hrs (reference value: 51.13 to 51.51 %); assay type: functional; conditions: PC-12, time 25 hrs, read-out: Activity
[12] = Cytoprotective activity against corticosterone-induced […] PC12 cell damage assessed as cell viability at 50 uM preincubated for 1 hr followed by corticosterone stimulation and measured after 24 hrs (reference value: 51.13 to 51.51 %); assay type: functional; conditions: PC-12, time 25 hrs, read-out: Activity

COc1cc2c(cc1OC)CN(CCc1ccc(F)cc1)CC2
viability at 50 µM [1]: 38.2%

CCN1CCc2cc(OC)c(OC)cc2C1
viability at 50 µM [1]: 58.9%
Activity [2]: Non-Toxic

COc1cc2c(cc1OC)CN(C(=O)c1cccs1)CC2
viability at 50 µM [1]: 58.5%

COc1ccc(CN2CCc3cc(OC)c(OC)cc3C2)cc1
viability at 50 µM [1]: 51.8%
Activity [2]: Non-Toxic

COc1cc2c(cc1OC)CN(C(=O)Cc1ccc(O)cc1)CC2
viability at 50 µM [1]: 42.4%
Activity [2]: Toxic

COc1cc2c(cc1OC)CN(C(=O)c1ccccc1O)CC2
viability at 50 µM [1]: 47.3%
Activity [2]: Toxic

COc1cc2c(cc1OC)CN(C(=O)c1ccc(F)cc1)CC2
viability at 50 µM [1]: 49.6%
Activity [2]: Toxic

COc1ccc(C(=O)N2CCc3cc(OC)c(OC)cc3C2)cc1
viability at 50 µM [1]: 44.8%
Activity [2]: Toxic

COc1cc2c(cc1OC)CN(C(=O)c1cc3ccccc3[nH]1)CC2
viability at 50 µM [1]: 62.8%

COc1cc2c(cc1OC)CN(CCc1ccccc1)CC2
viability at 50 µM [1]: 54.2%
Activity [2]: Non-Toxic

COc1ccc(CC(=O)N2CCc3cc(OC)c(OC)cc3C2)cc1
viability at 50 µM [1]: 51.9%

COc1cc2c(cc1OC)CN(Cc1ccccc1)CC2
viability at 50 µM [1]: 49.6%
Activity [2]: Non-Toxic

COc1cc2c(cc1OC)CN(C)CC2
viability at 50 µM [1]: 54.5%
Activity [2]: Non-Toxic

COc1cc2c(cc1OC)CN(C(=O)C(C)(C)C)CC2
viability at 50 µM [1]: 33.7%
Activity [2]: Toxic

COc1ccc(CCN2CCc3cc(OC)c(OC)cc3C2)cc1
Activity [3]: 27.5 g
Activity [4]: 21.3 g
viability at 5 µM [5]: 49.1%
Activity (PC12): Dose-Dependent Effect
viability at 50 µM [1]: 69.3%
viability at 10 µM [6]: 65%
Activity [7]: 29.58%
Activity (Mus musculus [8]): 57.65%
Activity (Mus musculus [9]): 65.85%
Activity [2]: Non-Toxic

COc1cc2c(cc1OC)CN(C(=O)c1ccc(O)cc1)CC2
viability at 50 µM [1]: 39.8%
Activity [2]: Toxic

COc1cc2c(cc1OC)CN(C(=O)c1ccc(OC(C)=O)cc1)CC2
viability at 50 µM [1]: 48.4%
Activity [2]: Toxic

COc1cc2c(cc1OC)CN(C=O)CC2
viability at 50 µM [1]: 49.9%
Activity [2]: Toxic

COc1cc2c(cc1OC)CN(CCc1ccc(O)cc1)CC2
viability at 50 µM [1]: 50.4%
Activity [2]: Non-Toxic

COc1cc2c(cc1OC)CN(Cc1ccc(F)cc1)CC2
viability at 50 µM [1]: 49.5%
Activity [2]: Non-Toxic

COc1cc2c(cc1OC)CN(C(=O)c1ccncc1)CC2
viability at 50 µM [1]: 51.2%

COc1ccc2c(c1O)-c1c(O)c(OC)cc3c1[C@H](C2)[N+](C)(C)CC3 [MAGNOFLORINE]
Activity [3]: 29.44 g
Activity [4]: 24.21 g
viability at 10 µM [10]: 73.7%
viability at 5 µM [11]: 48.6%
viability at 50 µM [12]: 48.6%
Activity [7]: 21.15%
Activity (Mus musculus [8]): 68.61%
Activity (Mus musculus [9]): 65.65%

COc1ccc(CCCN2CCc3cc(OC)c(OC)cc3C2)cc1
viability at 50 µM [1]: 51.8%
Activity [2]: Non-Toxic

COc1cc2c(cc1OC)CNCC2
viability at 5 µM [5]: 65.7%
viability at 50 µM [1]: 45.8%
viability at 10 µM [6]: 57%

COc1cc2c(cc1OC)CN(C(=O)c1ccccc1)CC2
viability at 50 µM [1]: 35.6%
Activity [2]: Toxic

COc1cc2c(cc1OC)CN(C(C)=O)CC2
viability at 50 µM [1]: 37.2%
Activity [2]: Toxic

COc1cc2c(cc1OC)CN(C(=O)c1ccc(C(F)(F)F)cc1)CC2
viability at 50 µM [1]: 48.3%
Activity [2]: Toxic
